For series [1], the system named is neuronal protein extravasation. The series can be described thus: Protein extravasation assay (dura, stimulation of trigeminal ganglion). It is filed as in vivo, guinea pig.
For series [2], the system named is rabbit saphenous vein. Description: Rabbit Saphenous Vein Contraction.
The subject of series [3] is vasoconstriction. Conditions: Goodman and Gilman; cited from earlier work.
Series [4] deals with T1, 5-HT1F receptor (Homo sapiens, UniProt P30939).
T1 sequence (P30939 1-366): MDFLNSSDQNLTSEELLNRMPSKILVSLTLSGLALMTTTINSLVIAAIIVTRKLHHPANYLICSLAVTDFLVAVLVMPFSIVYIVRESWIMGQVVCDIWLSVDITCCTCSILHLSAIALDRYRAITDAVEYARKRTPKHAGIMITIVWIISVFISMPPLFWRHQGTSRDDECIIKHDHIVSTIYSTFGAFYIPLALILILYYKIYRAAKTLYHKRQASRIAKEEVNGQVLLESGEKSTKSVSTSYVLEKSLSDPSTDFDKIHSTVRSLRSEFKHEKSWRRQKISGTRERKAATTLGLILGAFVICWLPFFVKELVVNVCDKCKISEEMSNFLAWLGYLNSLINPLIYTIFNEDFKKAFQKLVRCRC
Description: Measurement of cAMP formation: inhibition of forskolin stimulated cAMP in NIH3 T3 cells transfected with the 5-HT1F receptor. It is filed as cell-based. The conditions noted are these: for agonist character at the 5-HT1F receptor in the cAMP assay: forskolin stimulated cAMP, transfected NIH3 T3 cells. On the technique in general: cAMP levels reflect the balance of adenylyl cyclase and phosphodiesterase activity.

Series [5] concerns 5-HT1F receptor. The conditions noted are these: Weinshank et al., WO93/14201; cited from earlier work.
Series [6] deals with T2, 5-HT1F (Homo sapiens, UniProt P30939).
T2 construct: expressed in transfected cells; host or cells: Ltk- cells
Description: Radioligand binding ([3H]5-HT displacement), 5-HT1F.

For series [7] the following is noted: Humphrey et al.; cited from earlier work.
Series [8] deals with migraine. The conditions noted are these: in vivo; cited from earlier work.
Series [9] relates to neurogenic inflammation. Conditions: dose similar to that required to treat acute migraine in humans; cited from earlier work.
For series [10] the following is noted: in vivo; cited from earlier work.
The mark [11] stands for this setting: Cavia porcellus, iv, read-out: Inhibition of Protein Extravasation i.v. ID50.
The mark [12] stands for this setting: i.v., 10 minutes before trigeminal ganglion stimulation; dose inhibiting extravasation by 50%.
Setting [13] is: Oryctolagus cuniculus, read-out: Corrected Vasoconstriction EC50.
Where [14] appears, read: Oryctolagus cuniculus, read-out: Rabbit Saphenous Vein Contraction (% Max. KCl).
Where [15] appears, read: Oryctolagus cuniculus; read-out: Rabbit Saphenous Vein Contraction EC50.

Counter-ions that a name gives are not always drawn. Like-named read-outs stand apart in the source and are kept apart here.

As to `CN(C)C1CCc2[nH]c3ccc(O)cc3c2C1` (centres unmarked) [Compound V, 6-hydroxy-3-dimethylamino-1,2,3,4-tetrahydrocarbazole], in series [1] (setting [11]), the ED50 was 8.7e-06 µmol/kg. Moreover, in series [1] (setting [12]), the “Inhibition of Protein Extravasation i.v. ID50” value turned out to be 8.7e-09 mmol/kg. For the same molecule, the EC50 (in general, the concentration at which the effect is half-maximal) is greater than 8030 nM in [2] (setting [13]) and greater than 100000 nM in series [2] (Oryctolagus cuniculus, read-out: Rabbit Saphenous Vein Contraction EC50). Besides, in [2] (setting [14]), the Emax turned out to be 12.4%.

`CN1C[C@H](C(=O)N[C@]2(C)O[C@@]3(O)[C@@H]4CCCN4C(=O)[C@H](Cc4ccccc4)N3C2=O)C[C@@H]2c3cccc4[nH]cc(c34)C[C@H]21` [Dihydroergotamine]: in series [1] (setting [11]), the ED50 amounted to 2.43e-05 µmol/kg. Also, the “inhibition of neuronal protein extravasation (in words)” value in [1] (i.v.) was “fully effective inhibitor”. The “ratio of extravasation in the dura, stimulated side compared to unstimulated side” value in series [1] (i.v.; saline controls approximately 2.0 in rats, 1.8 in guinea pigs) turned out to be 1.0. For the same molecule, the vasoconstrictor activity result in series [3] is “potent vasoconstrictor”. Moreover, the “agonist character at the 5-HT1F receptor in the cAMP assay” value in series [4] is “partial agonist”. In addition, in series [4] (percent of maximal effect of serotonin, forskolin 10 μM), the “cAMP assay Emax at the 5-HT1F receptor” value is recorded as 49.5%.

With `CNS(=O)(=O)Cc1ccc2[nH]cc(CCN(C)C)c2c1.O=C(O)CCC(=O)O` [Compound I, 3-[2-(dimethylamino)ethyl]-N-methyl-1H-indole-5-methanesulfonamide butane-1,4-dioate (1:1)], in [5], the “affinity for the 5-HT1F receptor” value was “high affinity”. For the same molecule, the “5-HT1F activity (in words)” value in [6] is on record as “significant component of 5-HT1F activity”. Also, the ED50 in series [1] (setting [11]) came out at 2.6e-05 µmol/kg. The “Inhibition of Protein Extravasation i.v. ID50” value in series [1] (iv) was determined as 2.6e-08 mmol/kg. Besides, in series [7], the “agonist at 5-HT1-like receptors, hydrophilicity” value was “hydrophilic agonist at 5-HT-1-like receptors” and the “crossing of the blood-brain barrier” value is “does not cross the blood-brain barrier”. Further, the “efficacy in the treatment of migraine” value in series [8] is recorded as “effective in the treatment of migraine”. For the same molecule, the EC50 in [2] (setting [13]) was determined as 10.3 nM. In addition, the EC50 in series [2] (setting [15]) was 660 nM. Further, the “blockade of neurogenic inflammation” value in series [9] is “blocked”. Besides, in series [10], the “contraindications as products of vasoconstrictive activity” value was “coronary vasospasm, hypertension and angina”.

For `NCCc1c[nH]c2ccc(O)cc12` [serotonin], in series [4], the “agonist character at the 5-HT1F receptor in the cAMP assay” value is listed as “maximal effect”.

On to `Cn1cc(CCN2CCC(c3c[nH]c4ccc(F)cc34)CC2)cn1` [Compound II, 5-fluoro-3-<1-<2-<1-methyl-1H-pyrazol-4-yl >ethyl>-4-piperidinyl>-1H-indolehydrochloride], for which, in series [1] (Cavia porcellus, iv; read-out: Inhibition of Protein Extravasation i.v. ID50), the ED50 came out at 8e-07 µmol/kg. In addition, the “Inhibition of Protein Extravasation i.v. ID50” value in series [1] (guinea pig, in vivo, iv) amounted to 8e-10 mmol/kg. Moreover, the values for the EC50 in [2] (Oryctolagus cuniculus; read-out: Corrected Vasoconstriction EC50) and in [2] (setting [15]) were 72.9 nM and 1000 nM, respectively. The Emax in series [2] (Oryctolagus cuniculus; read-out: Rabbit Saphenous Vein Contraction (% Max. KCl)) came to 13.7%.

In the case of `Oc1ccc2[nH]cc(C3CCNCC3)c2c1` [Compound III, 5-hydroxy-3-(4-piperidinyl)-1-H-indole oxalate], in series [1] (setting [11]), the ED50 worked out at 8.9e-06 µmol/kg.

Regarding `CCN(CC)C1CCc2cccc(Cl)c2C1.Cl` (centres unmarked) [Compound IV, 8-chloro-2-diethylamino-1,2,3,4-tetrahydronaphthalene hydrochloride], the “5-HT1F activity (in words)” value in series [6] is given as “significant component of 5-HT1F activity”. In series [1] (setting [11]), the ED50 came out at 0.00012 µmol/kg. Further, the “Inhibition of Protein Extravasation i.v. ID50” value in [1] (setting [12]) is 1.2e-07 mmol/kg. Further, the EC50 in series [2] (setting [13]) came out at 1.49 nM; in [2] (setting [15]) it was 1000 nM. Also, the Emax in series [2] (setting [14]) was 67.2%.

These data come from patent publication US5698571A, “5-HT1F mediated inhibition of neurogenic meningeal extravasation: a method for the treatment of migraine” (Eli Lilly and Company, priority 1994, dated 1997).
